Experimental data reported in US4876260A, “Oxathiolanes” (State of Israel, Israel Institute of Biological Research, priority 1988, dated 1989).
Values joined by “and” are separate entries in the source; they are usually repeats but may differ in a detail not shown here. Equal entries are not always repeated. “Also recorded” adds a separate entry of the source. Where two headings read alike, the source gives them in different places.

Assays:
[1] = biological target: T1, M1 muscarinic receptors (3H-PZ sites, forebrain) (Rattus norvegicus, UniProt P08482); assay: Displacement of 3H-Pirenzepine (3H-PZ, selective M1 antagonist) from rat forebrain homogenate; type: binding
T1 sequence (P08482 1-460): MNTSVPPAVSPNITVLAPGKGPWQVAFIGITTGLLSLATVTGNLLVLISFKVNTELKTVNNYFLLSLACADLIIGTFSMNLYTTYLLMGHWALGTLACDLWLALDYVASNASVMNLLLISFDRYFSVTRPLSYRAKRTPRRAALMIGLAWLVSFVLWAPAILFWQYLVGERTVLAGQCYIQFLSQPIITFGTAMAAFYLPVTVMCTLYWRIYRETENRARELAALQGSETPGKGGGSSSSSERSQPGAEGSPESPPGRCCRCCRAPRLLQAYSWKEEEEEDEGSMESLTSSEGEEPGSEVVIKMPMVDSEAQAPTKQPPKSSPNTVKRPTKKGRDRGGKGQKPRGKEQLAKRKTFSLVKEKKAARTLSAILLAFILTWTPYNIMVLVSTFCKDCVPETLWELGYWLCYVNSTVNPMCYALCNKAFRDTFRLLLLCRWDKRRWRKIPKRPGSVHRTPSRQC

[2] = biological target: muscarinic receptors (3H-CD sites, frontal cortex); assay: Displacement of 3H-CD from rat frontal cortex homogenate; type: binding; details: (c') frontal cortex
[3] = biological target: muscarinic receptors (3H-QNB sites, frontal cortex); type: binding, rat; details: (b') frontal cortex
[4] = tested on: muscarinic receptors (3H-QNB sites, cerebellum, mainly M2); assay: biochemical; type: binding, rat; details: for b':b": (k) Ki(3H-QNB) frontal cortex : Ki(3H-QNB) cerebellum
[5] = biological target: T2, muscarinic receptors (3H-QNB sites, cerebellum, mainly M2) (Rattus norvegicus, UniProt P10980); assay: biochemical; type: binding; details: Ki(3H-QNB), (b") cerebellum
T2 sequence (P10980 1-466): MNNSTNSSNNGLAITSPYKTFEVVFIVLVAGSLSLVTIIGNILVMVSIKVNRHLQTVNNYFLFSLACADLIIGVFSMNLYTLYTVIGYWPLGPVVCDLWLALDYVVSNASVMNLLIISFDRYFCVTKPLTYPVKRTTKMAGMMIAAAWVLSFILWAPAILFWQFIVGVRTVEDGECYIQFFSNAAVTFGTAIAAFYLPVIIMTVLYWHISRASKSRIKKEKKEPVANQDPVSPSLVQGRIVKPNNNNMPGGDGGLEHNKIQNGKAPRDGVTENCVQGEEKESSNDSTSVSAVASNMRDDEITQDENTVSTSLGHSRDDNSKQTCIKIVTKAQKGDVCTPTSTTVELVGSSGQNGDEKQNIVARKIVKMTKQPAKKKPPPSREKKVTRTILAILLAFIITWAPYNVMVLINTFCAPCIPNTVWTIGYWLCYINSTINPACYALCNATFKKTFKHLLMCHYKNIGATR

[6] = biological target: muscarinic receptors (3H-QNB sites, M1 and M2, forebrain); type: binding, rat; details: (b) forebrain
[7] = biological target: T3, M1 muscarinic receptors (3H-PZ sites, frontal cortex) (Rattus norvegicus, UniProt P08482); assay: Displacement of 3H-PZ from rat frontal cortex homogenate; type: binding; details: for a':c', Ki(3H-PZ):Ki(3H-CD): (g) frontal cortex ratio
T3 sequence (P08482 1-460): T1 sequence (P08482 1-460)

all muscarinic receptors = details: cited from earlier work
[8] = biological target: muscarinic receptors (3H-CD sites, M1 and M2, forebrain); assay: Displacement of 3H-cis-dioxolane (3H-CD, non-selective M1 and M2 agonist) from rat forebrain homogenate; type: binding
[9] = tested on: isolated guinea-pig ileum; assay: Contraction of isolated guinea-pig ileum preparation; details: listed as AF122A
Source text: (§1) From this Table, it appears that compounds (III) were not so effective in contracting the guinea pig ileum preparation.

[10] = tested on: ACh-induced contractions of guinea-pig ileum; assay: Blocking of ACh-induced contractions of isolated guinea-pig ileum; details: listed as AF122A
Source text: as §1

mice = assay: Pharmacodynamic profile and general toxicity in mice; type: in vivo, CD-1 mice
[11] = 25 mg/kg i.v., listed as (±)-III AF122A
[12] = 100 mg/kg p.o., listed as (±)-III AF122A
[13] = 200 mg/kg p.o., listed as (±)-III AF122A

In the case of `O=C1CCCN1CC#CCN1CCCC1` [compound 1, Oxotremorine], the “order of the ratios Ki(3H-PZ):Ki(3H-CD)” value [1] is reported as “oxotremorine >McN-A-343>compound # 3; also recorded: weakest relative affinity towards M1 binding sites”, the “a:b, Ki(3H-PZ):Ki(3H-QNB)” value ([1]; (d) forebrain ratio) is reported as 0.29 and the “order of the ratios Ki(3H-PZ):Ki(3H-QNB)” value ([1]; forebrain, among oxotremorine, McN-A-343, compound #3) is reported as “McN-A-343 >compound #3>oxotremorine; also recorded: relatively stronger than McN-A-343 and compound #3”. For the same compound, the Ki [2] was 0.0016 ± 0.0004 µM, the Ki [3] was 2.2 ± 0.3 µM and the “a:b"” value ([4]; (h) Ki(3H-PZ) forebrain : Ki(3H-QNB) cerebellum) was 0.86. The “b:b"” value ([4]; (j) Ki(3H-QNB) forebrain : Ki(3H-QNB) cerebellum) was 3.00, the “b':b"” value [4] was 1.69 and the “order of M1 versus M2 selectivity, IC50 (FB):IC50 (CER) or IC50 (frontal cortex):IC50 (CER)” value ([4]; FB=forebrain, CER=cerebellum) was “compound #4>compound #3>oxotremorine”. The Ki [5] was 0.7 µM and 1.31 µM, the Ki [6] was 2.1 ± 0.3 µM and the “a':b', Ki(3H-PZ):Ki(3H-QNB)” value ([7]; (f) frontal cortex ratio) was 0.1. The “a':c', Ki(3H-PZ):Ki(3H-CD)” value [7] was 137.5, the Ki ([7]; Ki(3H-PZ)) was 0.22 ± 0.07 µM and the “affinity towards all muscarinic receptors (in words)” value (all muscarinic receptors) was “greater than those of the weaker agonists McN-A-343 or compound #3”. It also gave a Ki ([8]; (c) forebrain, * in M × 10^-10) of 0.00096 ± 0.00042 µM.

With `CC1OCC2(CN3CCC2CC3)S1` (stereo not shown) [compound 11, 2-methylspiro(1,3-oxathiolan-4,3')quinuclidine] the “M1 selectivity (in words)” value ([1]; from Tables 2A, 2B, 2C) was “high M1 selectivity”, the Ki [3] was 9.7 ± 2.3 µM and the “Contraction of guinea pig ileum (in words)” value [9] was “did not produce any significant contractions in the concentration range within which it binds to the brain receptors”. The “b':b"” value [4] was 0.49, the Ki [5] was 19.8 ± 6.1 µM and the “Effect on ACh-induced contractions (in words)” value [10] was “perturbed the ACh-induced contractions when applied in relatively high concentrations”. The “a':b', Ki(3H-PZ):Ki(3H-QNB)” value [7] was 0.09, the Ki ([7]; (a') frontal cortex, read-out: Ki(3H-PZ)) was 0.84 ± 0.03 µM and the “a':c', Ki(3H-PZ):Ki(3H-CD)” value [7] was 1.0. The Ki ([8]; Table 2B column (c'), footnote *forebrain) was 0.75 µM, the “Analgesia (nonresponsiveness to tail pinch), No. affected/total treated” value (mice; 10 mg/kg i.v.) was 2/5 and the “Vocalization, No. affected/total treated” value (mice; 10 mg/kg i.v.) was 2/5. The “Mortality, No. dead/total treated” value (mice; 10 mg/kg i.v., listed as (±)-III AF122A) was 0/5, the “Vocalization, No. affected/total treated” value (mice; 25 mg/kg i.v.) was 3/6 and the “Analgesia (nonresponsiveness to tail pinch), No. affected/total treated” value (mice; [11]) was 4/5. The “Convulsive seizures, No. affected/total treated” value (mice; [11]) was 1/6, the “Exophthalmus, No. affected/total treated” value (mice; [11]) was 3/6 and the “Mortality, No. dead/total treated” value (mice; [11]) was 1/6. The “Respiratory distress, No. affected/total treated” value (mice; [11]) was 4/6, the “Tremors, No. affected/total treated” value (mice; [11]) was 3/6 and the “Mortality, time after drug administration” value (“Mortality, time” for short) (mice; 25 mg/kg i.v., m = minutes) was 1 m. The “Convulsive seizures, No. affected/total treated” value (mice; 50 mg/kg i.v.) was 2/2, the “Mortality, No. dead/total treated” value (mice; 50 mg/kg i.v.) was 2/2 and the “Mortality, time” value (mice; 50 mg/kg i.v.) was 5 s. For the same compound, the “Mortality, No. dead/total treated” value (mice; 50 mg/kg p.o.) was 0/5, the “Mortality, No. dead/total treated” value (mice; 100 mg/kg i.v.) was 2/2 and the “Mortality, time” value (mice; 100 mg/kg i.v., immed = immediately) was “immed”. For the same compound, the “Mortality, No. dead/total treated” value (mice; [12]) was 0/5, the “Tremors, No. affected/total treated” value (mice; [12]) was 5/5 and the “Mortality, time” value (mice; 200 mg/kg p.o.) was 30 s. For the same compound, the “Convulsive seizures, No. affected/total treated” value (mice; [13]) was 5/5, the “Mortality, No. dead/total treated” value (mice; [13]) was 5/5 and the “Tremors, No. affected/total treated” value (mice; [13]) was 5/5.
